Assays:
[1] = biological target: T1, hGPR40 (Homo sapiens, UniProt O14842); assay: GPR40 FLIPR assay (agonist-induced calcium mobilization); assay type: cell-based; set-up: expressed in transfected cells; host or cells: CHO cells stably expressing NFAT BLA (beta-lactamase); settings: GPR40/CHO NFAT BLA cells;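 further: calcium mobilization in the cells read as fluorescence of fluo-4 AM loaded cells on FLIPR after compound addition, cells preloaded with dye 100 min at room temperature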
Experimental: Human and mouse GPR40 stable cell-lines were generated in CHO cells stably expressing NFAT BLA (Beta-lactamase). […] The expression plasmids were transfected using lipofectamine (Life Technologies) following manufacturer's instructions. Stable cell-lines were generated following drug selection.
FLIPR (Fluorimetric Imaging Plate Reader, Molecular Devices) assays were performed to measure agonist-induced calcium mobilization of the stable clones. For the FLIPR assay, one day before assay, GPR40/CHO NFAT BLA cells were seeded into black-wall-clear-bottom 384-well plates (Costar) at 1.4×10e4 cells/20 μL medium/well. The cells were incubated with 20 μl/well of the assay buffer (HBSS, 0.1% BSA, 20 mM HEPES, 2.5 mM probenecid, pH 7.4) containing 8 μM fluo-4, AM, 0.08% pluronic acid at room temperature for 100 minutes. Fluorescence output was measured using FLIPR. Compounds were dissolved in DMSO and diluted to desired concentrations with assay buffer. 13.3 μL/well of compound solution was added.

[2] = biological target: T1, hGPR40; assay: GPR40 Inositol Phosphate Turnover (IP1) Assay; assay type: cell-based; set-up: expressed in transfected cells; host or cells: HEK cells stably expressing the aequorin reporter; settings: HEK cells stably expressing human GPR40; 0% serum; read-out: hGPR40 IP1 EC50 (0% serum)
Experimental: A human GPR40 stable cell-line was generated in HEK cells stably expressing the aequorin expressing reporter.
The assay is performed in 96-well format. HEK cells stably expressing human GPR^40 are plated to be 60-80% confluent within 72 h. After 72 h, the plates are aspirated and the cells washed with inositol-free DMEM (ICN). The wash media is replaced with 150 μL of 3H-inositol labeling media (inositol-free media containing 0.4% human albumin or 0.4% mouse albumin, 1× pen/strep antibiotics, glutamine, 25 mM HEPES to which is added 3H-myo-inositol NEN #NET114A 1mCi/mL, 25 Ci/mmol diluted 1:150 in loading media with a final specific radioactivity of 1 μCi/150 μL). Alternatively, the human and mouse albumin can be added after the overnight labeling step before the addition of LiCl.
The assay is typically run the next day after 18 h labeling. On the day of the assay, 5 μL, of 300 mM LiCl is added to all wells and incubated at 37 degrees for 20 min. 0.75 μL of 200× compounds are added and incubated with the cells for 60 min at 37 degrees. The media is then aspirated off and the assay terminated with the addition of 60 nI, 10 mM formic acid. The cells are lysed for 60 min at room temperature. 15-30 nI, of lysate is mixed with 70 mL/1 mg YSi SPA beads (Amersham) in clear bottom Isoplates. The plates are shaken for 2 h at room temperature. Beads are allowed to settle and the plates are counted in the Wallac Microbeta.

T1 sequence (O14842 whole entry): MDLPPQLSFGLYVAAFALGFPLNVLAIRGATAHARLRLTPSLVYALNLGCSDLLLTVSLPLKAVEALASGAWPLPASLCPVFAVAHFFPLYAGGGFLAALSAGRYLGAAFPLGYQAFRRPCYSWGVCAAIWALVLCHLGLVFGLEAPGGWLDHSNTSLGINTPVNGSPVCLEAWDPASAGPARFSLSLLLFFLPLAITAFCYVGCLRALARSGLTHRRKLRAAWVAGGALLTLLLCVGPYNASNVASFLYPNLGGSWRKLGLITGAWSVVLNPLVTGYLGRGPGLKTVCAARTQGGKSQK

Structure (SMILES) | EC50 [1] [nM] | EC50 [2] [nM]
Cc1cc(OCCCS(C)(=O)=O)nc(C)c1-c1ccc(F)c(COc2cc3c(cn2)[C@H]2[C@@H](C3)[C@@H]2C(=O)O)c1 [Compound 23-12, (5aR,6S,6aS)-3-((5-(2,4-dimethyl-6-(3-(methylsulfonyl)propoxy)pyridin-3-yl)-2-fluorobenzyl)oxy)-5,5a,6,6a-tetrahydrocyclopropa [4,5]cyclopenta[1,2-c] pyridine-6-carboxylic acid] | 35 | 12
Cc1nc(OCCCS(C)(=O)=O)nc(C)c1-c1ccc(F)c(COc2cc3c(cn2)C2C(C3)C2C(=O)O)c1 (stereo not shown) [Compound 23-13, 3-((5-(4,6-dimethyl-2-(3-(methylsulfonyl)propoxy)pyrimidin-5-yl)-2-fluorobenzyl)-oxy)-5,5a,6,6a-tetrahydrocyclopropa [4,5]cyclopenta[1,2-c]pyridine-6-carboxylic acid] | 77 | 110
Cc1nc(OCCCS(C)(=O)=O)sc1-c1ccc(F)c(COc2cc3c(cn2)C2C(C3)C2C(=O)O)c1 (stereo not shown) [Compound 23-14, 3-((2-fluoro-5-(4-methyl-2-(3-(methylsulfonyl)-propoxy)thiazol-5-yl)-benzyl)oxy)-5,5a,6,6a-tetrahydrocyclopropa [4,5]cyclopenta[1,2-c] pyridine-6-carboxylic acid] | 18 | 34
Cc1nc(OCCCN2CCCC2=O)ccc1-c1ccc(F)c(COc2cc3c(cn2)C2C(C3)C2C(=O)O)c1 (stereo not shown) [Compound 23-15, 3-((2-fluoro-5-(2-methyl-6-(3-(2-oxopyrrolidin-1-yl)propoxy)pyridin-3-yl)benzyl)oxy)-5,5a,6,6a-tetahydrocyclopropa[4,5] cyclopenta[1,2-c]pyridine-6-carboxylic acid] | 38 | 27
CS(=O)(=O)CCCOc1cc(OC(F)F)c(-c2ccc(F)c(COc3cc4c(cn3)[C@H]3[C@@H](C4)[C@@H]3C(=O)O)c2)cn1 [Compound 23-17, (5aR,6S,6aS)-3-((5-(4-(difluoro-methoxy)-6-(3-(methylsulfonyl)propoxy)pyridin-3-yl)-2-fluorobenzyl)-oxy)-5,5a,6,6a-tetrahydrocyclopropa [4,5]cyclopenta[1,2-c] pyridine-6-carboxylic acid] | 58 | 82
Cc1nc(OCC(F)(F)C(F)(F)F)ccc1-c1ccc(F)c(COc2cc3c(cn2)C2C(C3)C2C(=O)O)c1 (stereo not shown) [Compound 23-18, 3-((2-fluoro-5-(2-methyl-6-(2,2,3,3,3-pentafluoro-propoxy)pyridin-3-yl)-benzyl)oxy)-5,5a,6,6a-tetra-hydrocyclopropa[4,5] cyclopenta[1,2-c]pyridine-6-carboxylic acid] | 10 | 56
Cc1nc(OCCCS(C)(=O)=O)ccc1-c1ccc(F)c(CNc2cc3c(cn2)C2C(C3)C2C(=O)O)c1 (stereo not shown) [Compound 24-4, 3-((2-fluoro-5-(2-methyl-6-(3-(methylsulfonyl)propoxy)pyridin-3-yl)benzyl)amino)-5,5a,6,6a-tetrahydrocyclopropa[4,5]cyclopenta[1,2-c]pyridine-6-carboxylic acid] | 96 | 90
O=C(O)[C@H]1[C@@H]2Cc3cc(OCc4cc(Oc5ccccc5C(F)(F)F)ccc4F)ncc3[C@@H]21 [Compound 25-2, 4-[2-Fluoro-5-(2-trifluoromethyl-phenoxy)-benzyloxy]-1,1a,6,6a-tetrahydro-3-aza-cyclopropa[a]indene-1-carboxylic acid] | 35 | 56
O=C(O)[C@H]1[C@@H]2Cc3cc(OCc4cc(Oc5ccccc5)ccc4F)ncc3[C@@H]21 [Compound 25-3, 4-(2-Fluoro-5-phenoxy-benzyloxy)-1,1a, 6,6a-tetrahydro-3-aza-cyclopropa [a]indene-1-carboxylic acid] | 34 | 85
O=C(O)[C@H]1[C@@H]2Cc3cc(OCc4cc(Oc5ccc(C(F)(F)F)cc5Cl)ccc4F)ncc3[C@@H]21 [Compound 25-4, 4-[5-(2-Chloro-4-trifluoromethyl-phenoxy)-2-fluoro-benzyloxy]-1,1a, 6,6a-tetrahydro-3-aza-cyclopropa [a]indene-1-carboxylic acid] | 49 | 300
Cc1cccc(C)c1-c1ccc(F)c(COc2cc3c(cn2)C2C(C3)C2C(=O)O)n1 (stereo not shown) [Compound 26-7, 3-((6-(2,6-dimethylphenyl)-3-fluoropyridin-2-yl)methoxy)-5,5a,6,6a-tetrahydrocyclopropa[4,5]cyclopenta[1,2-c]pyridine-6-carboxylic acid] | 42 | 120
Cc1cccc(C)c1-c1cc(COc2cc3c(cn2)C2C(C3)C2C(=O)O)c(F)cn1 (stereo not shown) [Compound 26-8, 3-((2-(2,6-dimethyl-phenyl)-5-fluoropyridin-4-yl)methoxy)-5,5a,6,6a-tetrahydrocyclopropa [4,5]cyclopenta[1,2-c]pyridine-6-carboxylic acid] | 28 | 100
CS(=O)(=O)CCCOc1ccc(-c2ccc(F)c(COc3cc4c(cn3)[C@H]3[C@@H](C4)[C@@H]3C(=O)O)n2)c(C(F)(F)F)c1 [Compound 26-9, (5aR,6S,6aS)-3-((3-fluoro-6-(4-(3-(methyl-sulfonyl)-propoxy)-2-(trifluoromethyl)-phenyl)pyridin-2-yl)methoxy)-5,5a,6,6a-tetrahydrocyclo-propa[4,5]cyclopenta [1,2-c]pyridine-6-carboxylic acid] | 70 | 53
Cc1nc(N2CCN(S(C)(=O)=O)CC2)ccc1-c1ccc(F)c(COc2cc3c(cn2)[C@H]2[C@@H](C3)[C@@H]2C(=O)O)n1 [Compound 26-10, (5aR,6S,6aS)-3-((5-fluoro-2′-methyl-6′-(4-(methylsulfonyl)-piperazin-1-yl)-[2,3′-bipyridin]-6-yl)methoxy)-5,5a,6,6a-tetrahydrocyclo-propa[4,5]cyclopenta [1,2-c]pyridine-6-carboxylic acid] | 90 | 300
Cc1cccc(C)c1-c1cccc(COc2cc3c(cn2)C2[C@@H](C3)[C@@H]2C(=O)O)c1C (stereo partly shown) [Compound 27-5, 4-(2,2′,6′-Trimethyl-biphenyl-3-ylmethoxy)-1,1a,6,6a-tetrahydro-3-aza-cyclopropa[a]indene-1-carboxylic acid] | 8.1 | 6.7
Cc1c(COc2cc3c(cn2)C2C(C3)C2C(=O)O)cccc1-c1ccccc1C(F)(F)F (stereo not shown) [Compound 27-6, 3-((2-methyl-2′-(trifluoro-methyl)-[1,1′-biphenyl]-3-yl)methoxy)-5,5a,6,6a-tetrahydrocyclopropa[4,5]-cyclopenta[1,2-c]pyridine-6-carboxylic acid] | 30 | 85
Cc1cc(OCCCC(C)(C)C#N)cc(C)c1-c1cccc(COc2cc3c(cn2)C2[C@@H](C3)[C@@H]2C(=O)O)c1 (stereo partly drawn) [Compound 28-6, (5aR,6S,6aR)-3-((4′-((4-cyano-4-methylpentyl)oxy)-2′,6′-dimethyl-[1,1′-biphenyl]-3-yl)methoxy)-5,5a,6,6a-tetrahdrocyclopropa[4,5]cyclopenta[1,2-c]pyridine-6-carboxylic acid] | 24 | 66
Cc1cc(O[C@H]2C[C@@](C)(C#N)C2)cc(C)c1-c1cccc(COc2cc3c(cn2)C2[C@@H](C3)[C@@H]2C(=O)O)c1 (stereo partly drawn) [Compound 29-7, (5aR,6S,6aR)-3-((4′-((1s,3s)-3-cyano-3-methylcyclobutoxy)-2′,6′-dimethyl-[1,1′-biphenyl]-3-yl)methoxy)-5,5a,6,6a-tetrahydrocyclopropa[4,5]cyclopenta[1,2-c]pyridine-6-carboxylic acid] | 54 | 21
Cc1cc(OCCCS(C)(=O)=O)cc(C)c1-c1ccc(F)c(C(C)Oc2cc3c(cn2)[C@H]2[C@@H](C3)[C@@H]2C(=O)O)c1 (stereo partly drawn) [Compound 30-5, (5aR,6S,6aS)-3-(1-(4-fluoro-2′,6′-dimethyl-4′-(3-(methylsulfonyl)propoxy)-[1,1′-biphenyl]-3-yl)ethoxy)-5,5a,6,6a-tetrahydrocyclopropa[4,5]cyclopenta[1,2-c]pyridine-6-carboxylic acid] | 45 | 300
Cc1nc(N2CC(CS(C)(=O)=O)C2)ccc1-c1ccc(F)c(COc2cc3c(cn2)[C@H]2[C@@H](C3)[C@@H]2C(=O)O)c1 [Compound 31-8] | 51 | 28
Cc1nc(N2CCC(CS(C)(=O)=O)C2)ccc1-c1ccc(F)c(COc2cc3c(cn2)C2C(C3)C2C(=O)O)c1 (stereo not shown) [Compound 31-9, 3-((2-fluoro-5-(2-methyl-6-(3-((methylsulfonyl)-methyl)pyrrolidin-1-yl)pyridin-3-yl)benzyl)oxy)-5,5a,6,6a-tetrahydrocyclopropa[4,5]cyclopenta[1,2-c]pyridine-6-carboxylic acid] | 76 | 69
Cc1nc(N2CCOCC2)nc(C)c1-c1ccc(F)c(COc2cc3c(cn2)C2C(C3)C2C(=O)O)c1 (stereo not shown) [Compound 31-10, 3-((5-(4,6-dimethyl-2-morpholinopyrimidin-5-yl)-2-fluorobenzyl)oxy)-5,5a,6,6a-tetrahydrocyclopropa[4,5]cyclopenta[1,2-c]pyridine-6-carboxylic acid] | 86 | 45
Cc1nc(N2CCC3(C=Cc4ccccc43)CC2)nc(C)c1-c1ccc(F)c(COc2cc3c(cn2)C2C(C3)C2C(=O)O)c1 (stereo not shown) [Compound 31-11, 3-((5-(4,6-dimethyl-2-(spiro[indene-1,4′-piperidin]-1′-yl)pyrimidin-5-yl)-2-fluorobenzyl)oxy)-5,5a,6,6a-tetrahydrocyclopropa[4,5]cyclopenta[1,2-c]pyridine-6-carboxylic acid] | 45 | 180
